According to ChEMBL document CHEMBL1154198, “Chemical genetics of Plasmodium falciparum” (Nature, 2010):

Legend:
Plasmodium falciparum [1] = experiment: ST_JUDE: Plasmodium falciparum K1 EC50 (uM) as measured by SYBR green dye; format: functional, organism-based
Plasmodium falciparum [2] = experiment: ST_JUDE: Plasmodium falciparum 3D7 EC50 (uM) as measured by SYBR green dye; format: functional, organism-based

Structure (SMILES)	EC50 (Plasmodium falciparum [1]) [µM]	EC50 (Plasmodium falciparum [2]) [µM]
CCN(CC)CCCNc1nc2cc(OC)c(OC)cc2c2nc(-c3ccccc3)nn12	> 15	> 15
Oc1ccc(-c2nc(-c3ccc4oc5ccc(-c6[nH]c(-c7ccc(O)cc7)nc6-c6ccccc6)cc5c4c3)c(-c3ccccc3)[nH]2)cc1	2.99	8.11
COC(=O)C1=CNC=C(C(=O)OC)C1c1ccc(Cl)c([N+](=O)[O-])c1	0.744	0.62
Cc1ccc(-n2nc(C)c3c(C)c(CCC(=O)Nc4ccc5[nH]c(-c6cccnc6)nc5c4)c(C)nc32)cc1C	1.04	0.798
COc1cc(CN(Cc2cccnc2)C(=O)c2[nH]c3ccc(Cl)cc3c2C)ccc1OC1CCOC1 (stereo not drawn)	> 15	> 15
CCc1ccc(OC(C)C(=O)Nc2nccs2)cc1 (stereo not drawn)	> 15	> 15
Cc1ccc(Nc2cc(C)nc(Nc3ccc(NS(=O)(=O)c4cccc(Cl)c4)cc3)n2)cc1	> 15	1.46
OCCNc1nc(Nc2ccc(Br)cc2)nc2ccccc12	1.7	0.829
CCCCN(CC)CCCNC(=O)Cn1ncc2c3ccccc3n(Cc3ccccc3)c2c1=O	> 15	> 15
CCOC(=O)c1ccc(Nc2nc3nonc3nc2NCc2ccco2)cc1	> 15	> 15
CCOC(=O)C1=C(C)N=c2s/c(=C\c3cc(Cl)ccc3O)c(=O)n2C1c1ccc(Cl)cc1 (stereo not drawn)	> 15	> 15
Cc1cccc(OCC(=O)Nc2cccc(-c3nnc(-c4ccccc4)o3)c2)c1	> 15	> 15
CCc1ccc(C(O)(CCC(C)C)C(CN2CCOCC2)c2ccccc2)cc1 (stereo not drawn)	1.99	2.45
Cc1nc2sc(C(c3ccc(Cl)cc3)N3CCC4(CC3)OCCO4)c(O)n2n1 (stereo not drawn)	> 15	> 15
CC(C)OCCNC(=O)CC1C(=O)NCCN1Cc1cccc(C(F)(F)F)c1 (stereo not drawn)	> 15	> 15
COc1ccc(-c2cnnc(N/N=C/c3ccc(O)cc3)n2)cc1	> 15	> 15
COc1ccc(N/C=C2/C(=O)N(c3ccc(OC)cc3)C(=O)c3ccccc32)cc1	> 15	> 15
CCO/C(O)=C1\C(C)=NC2=C(C(=O)CC(c3ccc(Cl)cc3)C2)C1c1ccc(O)c(OCC)c1 (stereo not drawn)	1.47	0.881

Structure (SMILES)	EC50 (Plasmodium falciparum [1]) [µM]	EC50 (Plasmodium falciparum [2]) [µM]
CC(Cc1ccccc1)NCCCCCCCCCNC(C)Cc1ccccc1 (stereo not drawn)	1.17	3.76
CCN(CC)CCNc1nc(Nc2ccc(F)cc2)c2cnn(-c3ccccc3)c2n1	3.02	1.34
COc1ccc(Nc2cc(C)nc(Nc3ccc(NS(=O)(=O)c4cccc(F)c4)cc3)n2)cc1	7.31	2.05
COc1ccc(S(=O)(=O)Nc2ccc(Nc3nc(C)cc(Nc4ccc(C)cc4)n3)cc2)cc1	7.51	0.618
CCOc1ccc(-c2nc(NC(=O)c3cccc(S(C)(=O)=O)c3)sc2C)cc1	> 15	> 15
CCc1c(C)nc(-n2nc(C)cc2NC(=O)c2cccc(OC)c2)nc1O	> 15	> 15
COC(=O)C1=C(C)N=c2s/c(=C\c3ccccc3OC(C)=O)c(=O)n2C1c1ccccc1Cl (stereo not drawn)	> 15	> 15
CC(C)COc1ccc(COC2C(C3COC(C)(C)O3)OC3OC(C)(C)OC32)cc1 (stereo not drawn)	> 15	7.79
O=C1C(Sc2nc[nH]n2)=C/C(=N/S(=O)(=O)c2ccc(F)cc2)c2ccccc21	11.9	> 15
CSc1nnc(-c2cccc([N+](=O)[O-])c2)n1Cc1ccccc1	1.3	1.39
CCCC(=O)NC(c1ccc(Cl)cc1)c1ccc2cccnc2c1O (stereo not drawn)	2.3	1.88
COc1ccc(NC2=C/C(=N/S(=O)(=O)c3ccc(C(C)C)cc3)c3ccccc3C2=O)cc1	0.458	0.499
COc1ccc2c(c1)C=C/C(=C\c1sc3ccccc3[n+]1C)N2C	0.145	0.163
CCOC(=O)c1ccc(NC(=O)N2CCN(Cc3ccccc3)CC2)cc1	> 15	> 15
O=C(NCC1Cc2cccc(-c3ccncc3)c2O1)c1csc2c1CCCC2 (stereo not drawn)	> 15	8.74
O=C1CC(c2ccc(Cl)cc2Cl)C2=C(CC(c3ccc(F)cc3)CC2=O)N1 (stereo not drawn)	> 15	> 15
CCCc1cc(O)nc(-n2nc(C)cc2NC(=O)c2cc(C)cc(C)c2)n1	> 15	> 15
COc1ccc(C(NC(=O)c2cccnc2)c2cc(Cl)c3cccnc3c2O)cc1OC (stereo not drawn)	2.66	> 15

The remaining lines, values ahead:

EC50 (Plasmodium falciparum [1]) [µM]	EC50 (Plasmodium falciparum [2]) [µM]	Structure (SMILES)
> 15	> 15	COc1ccc(-c2cc(=O)n(-c3ccc([N+](=O)[O-])cc3)[nH]2)cc1
3.77	3.46	COc1ccc(C2C(C(=O)Nc3ccc(C)cc3Br)c3ccccc3C(=O)N2C)cc1 (stereo not drawn)
3.34	3.47	Cc1cccc(NC(c2cccc(Cl)c2)c2ccc3cccnc3c2O)n1 (stereo not drawn)
> 15	> 15	CC(C)(C)C(=O)Cn1ccc(=N)c2ccccc21
> 15	> 15	CCOc1cccc(-c2cc(C(=O)Nc3cc(C)ccn3)c3ccccc3n2)c1
3.01	7.63	C[n+]1ccccc1/C=C1\Sc2ccccc2N1CCC(=O)O
> 15	> 15	CCCCCOCC1CC2(CC(C)(c3csc(Nc4ccccc4Cl)n3)OC2=O)C(=O)O1 (stereo not drawn)
4.69	3.99	Cc1cccc(CN2C(=O)/C(=C\c3ccc(C(=O)NC4CCCC4)cc3)Sc3ccccc32)c1
> 15	> 15	O=C(Nc1ccc([N+](=O)[O-])cc1)Nc1cc(Cl)cc(Cl)c1
2.36	3.34	COc1ccccc1N1CCN(Cc2cc(Cl)c3cccnc3c2O)CC1
> 15	> 15	CC1=C/C(=N\OC(=O)c2ccc(Br)cc2)C=CC1=O
1.59	> 15	Cc1ccc2oc(-c3cccc(NC(=O)C(Cl)(Cl)Cl)c3C)nc2c1
6.96	> 15	COc1ccc(C2C(C(=O)Nc3cc(OC)ccc3OC)c3ccccc3C(=O)N2C)cc1 (stereo not drawn)
3.17	2.32	CC(C)(C)OC(=O)CCN1C(=O)CSC1c1cnccc1-c1ccc(Br)cc1 (stereo not drawn)
4.78	4.17	CC(C)CC(=O)NC(c1ccc(Cl)cc1)c1c(O)ccc2ccccc12 (stereo not drawn)
5.83	7.12	Cc1cccc2sc(NNC(=O)c3ccc(S(=O)(=O)N(C)C)cc3)nc12
> 15	> 15	Cc1onc(-c2ccccc2)c1C(=O)Nc1cccc(Br)c1
> 15	4.51	CCN(CCN(C)C)C(=O)c1csc(-c2ccc(OC(F)(F)F)cc2)n1
6.67	10.3	O=C(Nc1cccc(Cl)c1)N1CCn2cccc2C1c1ccc(F)c(F)c1 (stereo not drawn)
> 15	> 15	CCOC(=O)C1=C(C)N=c2s/c(=C\c3cc(Cl)ccc3O)c(=O)n2C1c1ccccc1 (stereo not drawn)
3.75	1.78	Cc1cccc(CN2C(=O)/C(=C\c3ccccc3)Sc3ccc(C(=O)NCCN(C)C4CCCCC4)cc32)c1
> 15	> 15	CCCC(=O)n1nc(-c2ccc(Cl)cc2)nc1NCc1ccc(OC)cc1
> 15	0.564	COc1ccc(Nc2cc(C)nc(Nc3ccc(NS(=O)(=O)c4ccc(Cl)cc4)cc3)n2)cc1
> 15	> 15	Cc1cc(C)c(S(=O)(=O)N(C)CC(=O)Nc2cccc(C(F)(F)F)c2)c(C)c1

EC50 (Plasmodium falciparum [1]) [µM]	EC50 (Plasmodium falciparum [2]) [µM]	Structure (SMILES)
0.377	1.79	O=C1C(Nc2ccc(Br)cc2)=C(N2CCOCC2)C(=O)c2ccccc21
2.94	3.43	COc1ccc(CCNC(=S)Nc2cc(Cl)ccc2Cl)cc1OC
> 15	> 15	O=C(Nc1cccc(OC(F)(F)F)c1)c1ccc(Br)o1
1.8	1.39	CCOc1ccc(-c2nonc2NC(=O)C(C)C)cc1OCC
> 15	> 15	O=C(COc1cccc(Br)c1)N/N=C/c1ccc(Br)cc1
> 15	1.42	CCc1ccc(S(=O)(=O)Nc2ccc(Nc3nc(C)cc(N4CCCC4)n3)cc2)cc1
10.1	> 15	Cc1cccn2c(=O)nc(SCc3cccc(F)c3)nc12
> 15	> 15	CCOCc1cc(CN2CCN(CCC(C)C)C(CCO)C2)ccc1OC (stereo not drawn)
> 15	> 15	CCc1cc2c(=O)c(Oc3ccccc3)c(C(F)(F)F)oc2cc1O
> 15	> 15	N#C/C(=C/c1ccc(O)c([N+](=O)[O-])c1)c1nc(-c2ccc(Cl)cc2)cs1
> 15	> 15	O=C(N/N=C/c1cc(Cl)cc(Cl)c1O)NC12CC3CC(CC(C3)C1)C2
2.73	2.32	CCOc1c(Br)cc(C2C(C#N)=C(N)Oc3cc4c(cc32)OCO4)cc1OC (stereo not drawn)
> 15	> 15	COc1cccc2c(C)nc(N=C(N)N)nc12
1.61	1.81	COc1ccc(-c2onc(C(F)(F)F)c2Oc2cnn(-c3ccccc3)c2)c(O)c1
1.32	0.741	COc1ccc(C(C)(C)C)cc1S(=O)(=O)Nc1ccc(Nc2nc(C)cc(N(C)C)n2)cc1
4.79	4.89	Cc1ccc(O)c(-n2cc3c(c2-c2cccc([N+](=O)[O-])c2)c(=O)n(C)c(=O)n3C)c1
> 15	5	CCCN1CCC(N2CCCC(C(=O)c3ccc4cc(OC)ccc4c3)C2)CC1 (stereo not drawn)
> 15	4.14	CCOC(=O)c1c(CN(C)C)n(-c2ccccc2)c2cc(Br)c(O)cc12
1.61	0.487	COc1ccc(-n2c(N)c(C#N)c3nc4ccccc4nc32)cc1
> 15	> 15	COc1cc2nnc(/C=C/C(C)=O)c(-c3ccc(C)o3)c2cc1OC
> 15	2.05	CCOC(=O)N1CCN(C(=O)Nc2cc(C(F)(F)F)cc(C(F)(F)F)c2)CC1
2.6	2.59	COCCN1C(=O)c2ccccc2C(C(=O)Nc2ccc(F)c(Cl)c2)C1c1cccs1 (stereo not drawn)
> 15	4.41	CCc1ccc(C(Nc2ccccn2)c2cc(Cl)c3cccnc3c2O)cc1 (stereo not drawn)
0.138	0.19	Cc1ccc2c(c1)C=C/C(=C\c1cccc[n+]1C)N2C
